The values below come from publication PMC8617681 (Pharmaceuticals, 2021).

For one data set, the target named is T1, human OATP1B1 (Homo sapiens, UniProt Q9Y6L6).
T1 construct: Werner Siegmund and Dr. Markus Keiser (University of Greifswald); host or cells: HEK293
T1 sequence (Q9Y6L6 1-691): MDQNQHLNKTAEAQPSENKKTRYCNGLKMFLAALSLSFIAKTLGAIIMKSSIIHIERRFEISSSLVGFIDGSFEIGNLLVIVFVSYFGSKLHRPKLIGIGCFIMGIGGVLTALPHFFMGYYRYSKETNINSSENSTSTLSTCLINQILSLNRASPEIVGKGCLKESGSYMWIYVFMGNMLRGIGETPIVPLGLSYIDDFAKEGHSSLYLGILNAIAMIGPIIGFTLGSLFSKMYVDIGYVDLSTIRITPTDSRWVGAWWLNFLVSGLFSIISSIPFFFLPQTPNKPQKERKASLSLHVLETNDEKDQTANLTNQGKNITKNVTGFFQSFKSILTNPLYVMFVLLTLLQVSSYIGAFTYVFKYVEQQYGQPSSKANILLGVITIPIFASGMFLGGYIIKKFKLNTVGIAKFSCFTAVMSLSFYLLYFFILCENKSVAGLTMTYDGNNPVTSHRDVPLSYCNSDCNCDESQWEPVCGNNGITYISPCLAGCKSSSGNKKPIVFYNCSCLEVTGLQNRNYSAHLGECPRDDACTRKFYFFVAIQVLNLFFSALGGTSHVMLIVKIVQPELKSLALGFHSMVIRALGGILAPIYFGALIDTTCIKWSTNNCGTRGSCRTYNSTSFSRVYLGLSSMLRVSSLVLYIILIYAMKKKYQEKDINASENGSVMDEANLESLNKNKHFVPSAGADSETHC
As to the kind of experiment: Cellular uptake in OATP1B1-overexpressing HEK293 cells. In kind it is in vitro ADME. The note with it: 5 µM, 2.5 min incubation, HEK293 OATP1B1. Here is the method:
HEK293 cells, vector-transfected or human (h)SLCO1A2, hSLCO1B1 or hSLCO1B3 cDNA-transfected were kind gifts from Prof. Werner Siegmund and Dr. Markus Keiser (University of Greifswald, Greifswald, Germany). All the HEK293 cell lines were maintained in DMEM supplemented with 10% (v/v) FBS, 1% penicillin–streptomycin mix at 37 °C in 5% (v/v) CO2 and 500 μg/mL G418. Cells were first seeded in 12-well plates [coated with 50 mg/L poly (l-lysine) and 50 mg/L poly (l-ornithine)] at a density of 1.0 × 10^5 cells/well. For the uptake study, in order to induce the expression of OATP transporters, the cell culture medium was replaced with culture medium supplemented with 5 mM sodium butyrate 24 h before performing the uptake assay.
The uptake transport study was performed as described previously. […] The Krebs–Henseleit solution was prepared from Krebs–Henseleit-buffer modified powder and supplemented with 25 mM NaHCO3 and 2.5 mM CaCl2 adjusted to pH 6.4 with 1 M HCL. At 2.5 min, the incubation buffer was removed, and uptake was terminated by adding 1 mL of ice-cold Krebs–Henseleit buffer, followed by two times washing with 1 mL of ice-cold Krebs–Henseleit buffer. […] The cellular protein amount was determined by the Bradford method using 10 μL of the cell lysates with bovine serum albumin as a standard.

Data set [1] is described as follows: Oral selpercatinib pharmacokinetics in mice, summarised over the studies. In kind it is in vivo. Particulars: FVB (wild-type), mouse, plasma, 10 mg/kg oral, average. Here is the method: For the 4 h transporter experiments, tail-vein blood samples were collected at 0.125, 0.25, 0.5, 1, and 2 h time points after oral administration, respectively. For the CYP3A 8 h experiments, tail-vein blood sampling was performed at 0.25, 0.5, 1, 2, and 4 h, respectively. While for elacridar inhibition experiments, tail-vein blood samples were collected at 0.125, 0.25, 0.5, and 1 h time points after oral administration, respectively. Blood sample collection was performed using microvettes containing dipotassium EDTA. At the last time point in each experiment (2, 4 or 8 h), mice were anesthetized with 5% isoflurane and blood was collected by cardiac puncture. Blood samples were collected in Eppendorf tubes containing heparin as an anticoagulant. The mice were then sacrificed by cervical dislocation and brain, liver, kidney, lung, small intestine and testis were rapidly removed. Plasma was isolated from the blood by centrifugation at 9000× g for 6 min at 4 °C, and the plasma fraction was collected and stored at −30 °C until analysis. Organs were homogenized with 4% (w/v) bovine serum albumin and stored at −30 °C until analysis.
Pharmacokinetic parameters were calculated by noncompartmental methods using the PK solver software. The area under the plasma concentration–time curve (AUC) was calculated using the trapezoidal rule, without extrapolating to infinity. […]

A word on the Cmax: it is the peak of the concentration-time curve. For `COc1ccc(CN2C3CC2CN(c2ccc(-c4cc(OCC(C)(C)O)cn5ncc(C#N)c45)cn2)C3)cn1` [selpercatinib], on human OATP1B1, the “uptake compared to vector control cells” value is reported as “did not observe any significant increase in the uptake”. This molecule also showed a Cmax in data set [1] of around 8000 ng/mL.
